Data on four compounds can be found in ChEMBL document CHEMBL3588836, “Development of Quinoline-2,4(1H,3H)-diones as Potent and Selective Ligands of the Cannabinoid Type 2 Receptor” (J Med Chem, 2015).

Usually IC50 stands for the concentration that inhibits the measured activity by half. A word on the Emax: it is the maximal effect, on the per cent scale that the assay sets. What is called EC50 is the concentration giving half of the maximal effect.

The target of assay [1] is T1, Cannabinoid receptor 1 (Homo sapiens, UniProt P21554). It is filed as functional, cell-based, CHO.
T1 sequence (P21554 whole entry): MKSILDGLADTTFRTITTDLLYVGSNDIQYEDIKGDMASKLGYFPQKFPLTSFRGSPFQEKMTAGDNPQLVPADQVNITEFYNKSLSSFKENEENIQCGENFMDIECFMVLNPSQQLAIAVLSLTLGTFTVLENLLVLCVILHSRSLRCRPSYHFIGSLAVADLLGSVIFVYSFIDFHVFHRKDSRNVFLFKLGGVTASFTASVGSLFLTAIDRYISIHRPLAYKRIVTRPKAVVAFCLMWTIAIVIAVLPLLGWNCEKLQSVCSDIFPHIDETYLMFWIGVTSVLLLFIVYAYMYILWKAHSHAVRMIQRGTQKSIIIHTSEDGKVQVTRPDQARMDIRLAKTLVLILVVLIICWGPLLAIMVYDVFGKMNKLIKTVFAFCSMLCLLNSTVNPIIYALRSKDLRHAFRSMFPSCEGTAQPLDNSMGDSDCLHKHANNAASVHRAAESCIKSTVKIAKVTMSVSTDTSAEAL
Assay [2] addresses T2, Cannabinoid receptor 2 (Homo sapiens, UniProt P34972). The assay is described as follows: Antagonist activity against CB2R (unknown origin) CHO cells stably expressing Galpha16 assessed as inhibition of CP55940-induced increase in intracellular calcium level pre-treated 10 mins before CP55940 stimulation by microplate reader based assay. It is filed as functional, cell-based.

Assay [3] has as its target T2, Cannabinoid receptor 2. The assay is described as follows: Antagonist activity against CB2R (unknown origin) CHO cells stably expressing Galpha16 assessed as inhibition of CP55940-induced increase in intracellular calcium level pre-treated 10 mins before CP55940 stimulation by microplate reader based assay relative to […]. It is filed as functional, cell-based. On the technique in general: Calcium assays in cells follow changes in intracellular calcium, usually with a dye or a luminescent sensor.

Assay [4] relates to CHO. The assay is described as follows: Selectivity index, ratio of IC50 for CB1R (unknown origin) CHO cells stably expressing Galpha16 to IC50 for CB2R (unknown origin) CHO cells stably expressing Galpha16. Type of assay: cell-based. The note with it: Homo sapiens.
Assay [5] concerns the target T1, Cannabinoid receptor 1. The assay is described as follows: Agonist activity at CB1R (unknown origin) CHO cells stably expressing Galpha16 assessed as increase in intracellular calcium level by microplate reader based assay. It is filed as functional, cell-based.
In assay [6] the target is T2, Cannabinoid receptor 2. The assay is described as follows: Agonist activity at CB2R (unknown origin) CHO cells stably expressing Galpha16 assessed as increase in intracellular calcium level by microplate reader based assay. It is filed as functional, cell-based. The note with it: read-out: EC50.
Assay [7] has as its target T2, Cannabinoid receptor 2. The assay is described as follows: Agonist activity at CB2R (unknown origin) CHO cells stably expressing Galpha16 assessed as increase in intracellular calcium level by microplate reader based assay relative to CP55940. Type of assay: functional, cell-based.
For assay [8], the system named is CHO. The assay is described as follows: Selectivity index, ratio of EC50 for CB1R (unknown origin) CHO cells stably expressing Galpha16 to EC50 for CB2R (unknown origin) CHO cells stably expressing Galpha16. Type of assay: cell-based. The note with it: Homo sapiens.
The test system of assay [9] is Mus musculus. The assay is described as follows: Reduction in experimental autoimmune encephalomyelitis clinical scores in C57BL/6 mouse experimental autoimmune encephalomyelitis model of multiple sclerosis at 10 mg/kg, po administered once daily starting from day 3 after immunization until end of experiment and measured on day 21 after immunization. Type of assay: functional, organism-based.

Assay [10] has as its system Mus musculus. The assay is described as follows: Reduction in leukocyte infiltration in spinal cord of C57BL/6 mouse experimental autoimmune encephalomyelitis model of multiple sclerosis at 10 mg/kg, po administered once daily starting from day 3 after immunization until end of experiment and measured on day 21 after immunization by hematoxylin and eosin staining. Type of assay: functional, organism-based.

For assay [11], the system named is Mus musculus. The assay is described as follows: Reduction in extensive demyelination in white matter of C57BL/6 mouse experimental autoimmune encephalomyelitis model of multiple sclerosis at 10 mg/kg, po administered once daily starting from day 3 after immunization until end of experiment and measured on day 21 after immunization by Luxol fast blue staining. It is filed as functional, organism-based.

Activity calls are given as the source filed them. The rule behind the calls is not given here.

T2 sequence (P34972 whole entry): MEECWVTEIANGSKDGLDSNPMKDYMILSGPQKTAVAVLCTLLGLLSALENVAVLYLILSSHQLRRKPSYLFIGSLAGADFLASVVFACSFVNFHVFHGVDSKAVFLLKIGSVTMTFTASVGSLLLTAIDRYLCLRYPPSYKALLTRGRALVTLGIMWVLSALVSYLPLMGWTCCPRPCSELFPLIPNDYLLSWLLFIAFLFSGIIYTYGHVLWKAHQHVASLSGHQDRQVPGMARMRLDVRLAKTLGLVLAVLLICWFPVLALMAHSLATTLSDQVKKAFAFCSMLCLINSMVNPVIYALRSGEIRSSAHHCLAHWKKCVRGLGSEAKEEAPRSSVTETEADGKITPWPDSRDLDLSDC

`CCCCCN1C(=O)/C(=C/NC2CCCCC2)C(=O)c2cc(OC)ccc21`: the IC50 is more than 10000 nM against Cannabinoid receptor 1 [1] and 1650 nM at Cannabinoid receptor 2 [2]. The Emax on Cannabinoid receptor 2 [3] was 98.3%. The Ratio IC50 in the assay with CHO [4] was more than 6.06.

On to `CCCCCN1C(=O)/C(=C/NC2CCCCC2)C(=O)c2ccc(C)cc21`, for which the IC50 against Cannabinoid receptor 1 [1] was more than 10000 nM; at Cannabinoid receptor 2 [2] it was 9.03 nM. The Emax at Cannabinoid receptor 2 [3] was 96.3%. Moreover, the Ratio IC50 with CHO [4] is more than 1110.

On to `CCCCCN1C(=O)/C(=C/NC23CC4CC(CC(C4)C2)C3)C(=O)c2cc(OC)ccc21`, for which the values for the IC50 on Cannabinoid receptor 1 [1] and at Cannabinoid receptor 2 [2] were more than 10000 nM and 81.7 nM, respectively. Moreover, the Emax at Cannabinoid receptor 2 [3] is 106%. Besides, the Ratio IC50 with CHO [4] is more than 122.

With `CCCCN1C(=O)/C(=C/NC2CCCCC2)C(=O)c2cccc(C)c21`, the EC50 is more than 10000 nM at Cannabinoid receptor 1 [5] and 92.7 nM at Cannabinoid receptor 2 [6]. For the same compound, the Emax on Cannabinoid receptor 2 [7] was found to be 116%. Also, the Ratio EC50 in the assay on CHO [8] is more than 108. Also, the inhibition entry with Mus musculus [9] was “Dose-dependent effect”. Also, the inhibition result in the assay on Mus musculus [10] and with Mus musculus [11] was “Active” each time.
